Entries after “also recorded” stand apart in the source; their conditions may differ.
Legend:
[1] = test system: IL-6, IL-1β, IL-10, and TGF-β mRNA; assay: Cytokine/chemokine mRNA levels (qPCR) in sorted MG6 cells; format: cell-based, mouse; conditions: qPCR after inhibitor treatment
Protocol: (§1) FIGS. 7A-7D. Pyk2 inhibition promotes the phagocytotic activity and inflammatory responses in microglia. FIG. 7A: Quantification of the effect of Pyk2 inhibitor treatment on proliferation of mononucleated and multinucleated MG6 cells. MG6 cells were pretreated with 1000 nM Pyk2 inhibitor for 24 hours and mono-/multi-nuclear cells were isolated and collected by fluorescent activated cell sorting. […] There is no difference in proliferation of mononuclear cells after Pyk2 inhibitor treatment compared to untreated control cells. FIG. 7B: Fluorescent imaging depicting the effect of Pyk2 inhibitor on phagocytosis of mononucleated and multinucleated MG6 cells. MG6 cells were pretreated with 1000 nM Pyk2 inhibitor for 24 hours and mono-/multi-nuclear cells were isolated and collected by fluorescent activated cell sorting. After sorting, cells were treated with pHrodo Red E. coli BioParticles. Representative images are shown at ×20 magnification level. FIG. 7C: Quantification of phagocytosis of mononucleated and multinucleated MG6 cells over time. After Pyk2 inhibitor treatment and cell sorting, MG6 cells were treated with pHrodo Red E. coli BioParticles for the indicated time. Fluorescence intensity was measured by fluorescence microplate reader at excitation/emission wavelengths of 560/580 nm. […] FIG. 7D: Quantification of the effect of Pyk2 inhibitor treatment on cytokine/chemokine levels of mononucleated and multinucleated MG6 cells. The relative mRNA levels of IL-6, IL-1β, IL-10, and TGF-β were measured by a real-time PCR (qPCR). Measured mRNA transcript levels are reported as the mean level±standard deviation (n=3; *: p-value<0.05; **: p-value <0.01; ***: p-value <0.005; ****: p-value <0.001; and *****: p-value <0.0005).
(§2) Next, the differences in the activity of mononucleated and multinucleated microglial cells in response to Pyk2 inhibition was further assessed. […] Mononucleated and multinucleated MG6 cells also differed regarding the cytokines and chemokines produced by each (FIG. 7D).

[2] = test system: microglia; assay: β-amyloid (Aβ42) brain infusion assay, microglia response in vivo; set-up: species or system mouse; conditions: intracerebroventricular infusion before Aβ42 infusion
Text: FIGS. 9A-9B. FIG. 9A. Aβ brain infusion assay system. Using osmotic pump implanted to mice, an experimental system using intracerebroventricular injection was established to validate the morphological and molecular changes of microglia in response to Aβ42 in vivo. FIG. 9B. Activated microglia in the vicinity of amyloid plaques. Pyk2 inhibitor was infused into Iba1-EGFP transgenic mouse brain for 3 days and then Hylite-555 labelled-AP42 was infused into the brain using osmotic pump for the next 3 days. A 20 μm scale bar is in the bottom-left corner.
To test the morphological and molecular changes of microglia in response to Aβ42 in vivo a β-amyloid brain infusion assay was performed. An in vivo experimental system for […] was established with brain infusion pump inserted to left cerebral ventricle and treated Pyk2 inhibitor for 24 hours before Aβ42 infusion (FIG. 9A).

[3] = test system: MG6 cells; assay: Proliferation of FACS-sorted mono-/multinuclear MG6 cells; format: cell-based, mouse; conditions: 1000 nM, 24 h pretreatment
Protocol: as §1, with “MG6 cells were pretreated with 1000 nM Pyk2 inhibitor for 24 hours and mono-/multi-nuclear cells were isolated and collected by fluorescent activated cell sorting. After sorting, cells were treated with pHrodo Red E. coli BioParticles. Representative images are shown at ×20 magnification level.” left out, “After Pyk2 inhibitor treatment and cell sorting, MG6 cells were treated with pHrodo Red E. coli BioParticles for the indicated time.” left out, “<0.0005). […]” for “<0.0005).”

[4] = test system: MG6 cells; assay: Phagocytosis of pHrodo Red E. coli BioParticles by sorted mono-/multinuclear MG6 cells (fluorescence plate reader); format: cell-based, mouse
Protocol: as §1, §2

[5] = test system: MG6 cells; assay: MG6 microglia viability, morphology and proliferation (Cell Counting Kit-8); format: cell-based, mouse; conditions: for MG6 cell proliferation: 24 h after CSF-1, listed as Pyk2 inhibitor
Protocol: FIGS. 4A-4E. Induction of multinucleated cells by a Pyk2 inhibitor. FIG. 4A: Microscopic images depicting the effect of a Pyk2 inhibitor on the morphology of MG6 cells. MG6 cell line is established with neonatal C57BL/6 mouse microglia that are collected from whole brain and transformed with c-myc oncogene. MG6 cells were stimulated with 100 ng/mL CSF-1 for 48 hours and then cultured for 24 hours with various concentrations of Pyk2 inhibitor: 0 nM, 100 nM, 500 nM and 1000 nM. FIG. 4B: Quantification of the effect of a Pyk2 inhibitor on the proliferation of MG6 cells. MG6 cells were stimulated with CSF-1 and cultured with various concentrations of Pyk2 inhibitor as in FIG. 4A. The baseline proliferation rate is defined as 100 ng/mL CSF-1 treatment for 48 hours. Proliferation of MG6 cells with various concertation of Pyk2 inhibitor treatment is measured using a Cell Counter Kit for 4 hours of incubation. No difference in MG6 cell proliferation is observed at the Pyk2 inhibitor concentration of 100 nM. […] FIG. 4C: Microscopic images depicting multinucleated MG6 cells with 24 hours of 1000 nM Pyk2 inhibitor treatment following 48 hours of 100 ng/mL CSF-1 treatment. […] Multinucleated cells with two or more nuclei are observed as marked with circles in the bottom image. FIG. 4D: Quantification of the proportion of multinucleated cells after 0 nM, 500 nM, and 1000 nM Pyk2 inhibitor treatment. MG6 cells were treated with Pyk2 inhibitor for 24 hours after 48 hours of 100 ng/mL CSF-1 treatment. […] FIG. 4E: Immunohistochemical staining depicting multinucleation of Pyk2 inhibitor treated microglia. […]
To further assess the function of Pyk2 during neurodegenerative disorders, such as AD, the effect of Pyk2 inhibition was assessed in a microglial cell line. […]
Upon treatment with up to 1000 nM Pyk2 inhibitor, MG6 viability and morphology appeared to be unaffected (FIG. 4A). To assess if Pyk2 inhibition negatively affected proliferation of MG6 cells, treated and untreated cells were quantified using a Cell Counting Kit-8 (Dojindo, Japan CK104) after 4 hours of incubation.

[6] = 4 and 5 hours after pHrodo treatment

With `CN(c1ccccc1CNc1nc(Nc2ccc3c(c2)CC(=O)N3)ncc1C(F)(F)F)S(C)(=O)=O` [PF-431396] the “IL-1β expression, mononucleated MG6 cells” value [1] was “increased expression”, the “IL-1β expression, multinucleated MG6 cells” value [1] was “did not” and the “IL-6 expression, mononucleated MG6 cells” value [1] was “increased expression”. For the same compound, the “IL-6 expression, multinucleated MG6 cells” value [1] was “did not”, the “IL-10, mononucleated MG6 cells” value [1] was “reduction” and the “IL-10, multinucleated MG6 cells” value [1] was “reduction”. The “TGF-β expression, multinucleated MG6 cells” value [1] was “increase”, the “expression of MHC class II molecules (e.g., H2-D1 and H2-K1) in microglia” value [2] was “increased expression” and the “phagocytic activity near amyloid plaques” value [2] was “enhanced”. The “proportion of activated microglia” value ([2]; listed as Pyk2 inhibitor) was “a significant proportion of microglia were activated; also recorded: significantly larger proportion”, the “proliferation of sorted mononucleated MG6 cells vs untreated” value [3] was “no difference” and the “proliferation of sorted multinucleated MG6 cells” value ([3]; listed as Pyk2 inhibitor) was “slightly increased; also recorded: increased level”. For the same compound, the “phagocytosis of pHrodo BioParticles, sorted mononucleated cells vs control” value ([4]; 1000 nM pretreatment) was “did not”, the “phagocytosis of pHrodo BioParticles, sorted multinucleated cells vs control” value ([4]; 1000 nM pretreatment) was “increase in phagocytosis” and the “phagocytic activity, Pyk2-mono vs control” value [4, 6] was “do not show significant difference”. The “phagocytic activity, Pyk2-multi vs Pyk2-mono and controls” value [4, 6] was “higher phagocytic activity”, the “phagocytic activity, sorted mononuclear cells (Pyk2-mono)” value ([4]; 3 hours after pHrodo treatment) was “increased fluorescence signal” and the “phagocytic activity, sorted multinuclear cells (Pyk2-multi)” value ([4]; 3 hours after pHrodo treatment, listed as Pyk2 inhibitor) was “statistically significant increase; also recorded: increased fluorescence signal”. The MG6 cell proliferation ([5]; 100 nM (up to 100 nM)) was “No significant change; also recorded: No difference”, the MG6 cell proliferation ([5]; 500 nM or 1000 nM) was “slight reduction; also recorded: slightly decreased” and the “MG6 viability and morphology” value ([5]; up to 1000 nM, 24 h after 48 h 100 ng/mL CSF-1) was “unaffected”.
